In brackets after ≈: the same amount, converted by molar mass.
How the values were obtained:
Potassium channel KATP = assay: Radioligand displacement (Ricerca); format: binding, human; settings: 10 μM
Histamine H3 = molecular target: T1, Histamine H3 (Homo sapiens, UniProt Q9Y5N1); assay: Radioligand displacement (Ricerca); format: binding
T1 construct: Ricerca (contract laboratory that ran the panel)

Kir2.1 = molecular target: T2, Kir2.1 (Homo sapiens, UniProt P63252); assay: Thallium flux assay, Kir2.1-expressing cells; format: cell-based
T2 construct: expressed in transfected cells; host or cells: T-REx-293
Description: (§1) Cell Line Construction and Cell Culture. HEK-293 cells co-expressing human GIRK1/2 and rat mGlu8 were generated as previously described (Niswender et al., 2008). A HEK-293 cell line (ATCC, Manassas, Va.) expressing human GIRK1 and human GIRK2 was constructed by transfecting HEK-293 cells with GIRK1 and GIRK2 (Origene, Rockville, Md.) cloned into the pBudCE4.1 vector (Life Technologies, Carlsbad, Calif.) using FuGene 6 (Promega, Madison, Wis.) transfection reagent. Unless otherwise noted, other ion channel-expressing cells were prepared by transfecting HEK-293 cells with individual or combinations of subunits: GIRK1, pCMV6-A-BSD; GIRK2, pCMV6-A-puro; GIRK3, pCMV6-A-hygro; GIRK4, pCMV6-A-AC; Kv7.4, pIRESneo3. The Kir2.1 and hERG-expressing cell lines were made by transfecting T-REx-293 cells (Life Technologies, Carlsbad, Calif.) with Kir2.1 and Kv11.1, respectively, cloned into pcDNA5TO. Monoclonal cell lines were produced by limiting-dilution cloning of antibiotic-resistant cells and functional selection using the thallium flux assay described below. Unless otherwise noted, cells were maintained in Minimal Essential Medium, Alpha Medium (Mediatech, Manassas, Va.) supplemented with 10% fetal bovine serum (Sigma-Aldrich, Saint Louis, Mo.) and GlutaGro (Mediatech, Manassas, Va.), referred to henceforth as cell culture medium. […]

GIRK1/3 = molecular target: T3, GIRK1/3 (Homo sapiens, UniProt P48549+Q92806); assay: Thallium flux assay, HEK-293 cells expressing GIRK1/3; format: cell-based; settings: cell line GIRK1-3; average ± SEM
T3 construct: expressed in transfected cells; host or cells: HEK-293
Description: as §1

Histamine H2 = molecular target: T4, Histamine H2 (Homo sapiens, UniProt P25021); assay: Radioligand displacement (Ricerca); format: binding
T4 construct: Ricerca (contract laboratory that ran the panel)

Solubility = format: physicochemical
Cannabinoid CB1 = molecular target: T5, Cannabinoid CB1 (Homo sapiens, UniProt P21554); assay: Radioligand displacement (Ricerca); format: binding
T5 construct: Ricerca

GABAA (muscimol) = assay: Radioligand displacement (Ricerca); format: binding, rat; settings: 10 μM
Andreogen = molecular target: T6, Andreogen (Rattus norvegicus, UniProt P15207); assay: Radioligand displacement (Ricerca); format: binding
T6 construct: Ricerca
T6 sequence (P15207 whole entry S389L): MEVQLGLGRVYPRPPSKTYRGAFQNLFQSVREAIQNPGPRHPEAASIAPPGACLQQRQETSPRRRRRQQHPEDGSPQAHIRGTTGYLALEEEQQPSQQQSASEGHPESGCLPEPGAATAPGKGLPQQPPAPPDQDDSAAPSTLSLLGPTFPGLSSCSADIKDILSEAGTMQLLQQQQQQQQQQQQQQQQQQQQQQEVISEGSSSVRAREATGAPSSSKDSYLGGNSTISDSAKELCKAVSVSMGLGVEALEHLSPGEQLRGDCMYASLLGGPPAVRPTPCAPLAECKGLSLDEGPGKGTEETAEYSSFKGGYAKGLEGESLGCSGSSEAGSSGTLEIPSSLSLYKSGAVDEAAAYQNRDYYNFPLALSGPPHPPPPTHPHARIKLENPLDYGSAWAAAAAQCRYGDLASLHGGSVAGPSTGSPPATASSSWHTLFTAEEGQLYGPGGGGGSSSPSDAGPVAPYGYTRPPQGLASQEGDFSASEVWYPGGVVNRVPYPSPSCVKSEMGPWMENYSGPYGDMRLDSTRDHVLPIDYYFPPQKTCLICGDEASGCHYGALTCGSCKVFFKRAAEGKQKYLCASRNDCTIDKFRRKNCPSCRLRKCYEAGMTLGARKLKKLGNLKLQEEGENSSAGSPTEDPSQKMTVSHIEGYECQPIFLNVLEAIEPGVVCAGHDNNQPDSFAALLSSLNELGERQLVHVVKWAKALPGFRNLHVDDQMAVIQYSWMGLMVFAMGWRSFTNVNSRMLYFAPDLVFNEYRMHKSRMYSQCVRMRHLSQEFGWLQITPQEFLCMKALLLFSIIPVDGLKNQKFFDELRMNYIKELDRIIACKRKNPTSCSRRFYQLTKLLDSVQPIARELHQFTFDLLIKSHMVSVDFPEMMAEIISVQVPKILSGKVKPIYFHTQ

T2 sequence (P63252 whole entry): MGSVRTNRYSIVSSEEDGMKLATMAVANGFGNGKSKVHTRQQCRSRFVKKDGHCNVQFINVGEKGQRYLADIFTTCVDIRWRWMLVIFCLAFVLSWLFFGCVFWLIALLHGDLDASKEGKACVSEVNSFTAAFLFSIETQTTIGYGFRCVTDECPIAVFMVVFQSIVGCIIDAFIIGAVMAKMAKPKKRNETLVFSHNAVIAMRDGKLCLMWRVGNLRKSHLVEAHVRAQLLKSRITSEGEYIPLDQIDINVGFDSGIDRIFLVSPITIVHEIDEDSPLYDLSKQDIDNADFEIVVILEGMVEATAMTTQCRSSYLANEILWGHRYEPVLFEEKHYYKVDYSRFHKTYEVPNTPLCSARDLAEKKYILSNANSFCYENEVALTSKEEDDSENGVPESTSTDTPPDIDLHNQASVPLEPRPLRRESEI
T3 sequence (P48549 whole entry): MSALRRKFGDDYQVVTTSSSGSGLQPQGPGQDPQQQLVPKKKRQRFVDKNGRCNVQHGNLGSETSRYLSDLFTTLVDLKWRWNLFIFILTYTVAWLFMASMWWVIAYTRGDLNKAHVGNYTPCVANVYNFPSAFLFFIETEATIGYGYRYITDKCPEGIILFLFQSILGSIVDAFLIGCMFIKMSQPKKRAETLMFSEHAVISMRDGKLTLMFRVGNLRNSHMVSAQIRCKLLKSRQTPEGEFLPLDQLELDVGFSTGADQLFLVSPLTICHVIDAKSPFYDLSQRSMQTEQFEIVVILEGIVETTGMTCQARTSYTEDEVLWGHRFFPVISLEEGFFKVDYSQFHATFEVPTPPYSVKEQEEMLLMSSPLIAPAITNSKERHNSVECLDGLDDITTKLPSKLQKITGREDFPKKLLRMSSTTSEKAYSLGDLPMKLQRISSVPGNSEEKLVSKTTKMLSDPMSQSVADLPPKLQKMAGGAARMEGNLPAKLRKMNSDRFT
T3 sequence (Q92806 whole entry): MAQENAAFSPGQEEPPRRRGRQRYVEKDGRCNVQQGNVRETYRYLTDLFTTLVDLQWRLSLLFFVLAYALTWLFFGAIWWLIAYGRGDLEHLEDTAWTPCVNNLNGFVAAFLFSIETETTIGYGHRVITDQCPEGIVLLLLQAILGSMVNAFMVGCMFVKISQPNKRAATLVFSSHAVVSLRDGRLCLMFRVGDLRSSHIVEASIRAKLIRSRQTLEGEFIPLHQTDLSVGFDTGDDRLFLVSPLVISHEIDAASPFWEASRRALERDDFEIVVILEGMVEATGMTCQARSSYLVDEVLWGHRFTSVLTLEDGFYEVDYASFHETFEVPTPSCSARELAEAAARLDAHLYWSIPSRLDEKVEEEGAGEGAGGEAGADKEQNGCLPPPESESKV
T5 sequence (P21554 whole entry): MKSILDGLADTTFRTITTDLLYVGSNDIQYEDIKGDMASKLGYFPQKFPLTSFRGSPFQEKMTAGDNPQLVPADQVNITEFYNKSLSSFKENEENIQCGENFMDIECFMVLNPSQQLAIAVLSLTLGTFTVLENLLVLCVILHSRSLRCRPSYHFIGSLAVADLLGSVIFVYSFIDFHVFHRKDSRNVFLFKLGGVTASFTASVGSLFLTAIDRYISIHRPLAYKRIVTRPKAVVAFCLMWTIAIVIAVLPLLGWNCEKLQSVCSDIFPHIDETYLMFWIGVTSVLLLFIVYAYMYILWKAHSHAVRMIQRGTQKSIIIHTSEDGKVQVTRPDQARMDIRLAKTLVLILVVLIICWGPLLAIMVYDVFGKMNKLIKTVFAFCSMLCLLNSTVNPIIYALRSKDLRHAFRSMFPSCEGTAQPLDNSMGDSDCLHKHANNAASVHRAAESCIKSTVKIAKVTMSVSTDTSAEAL
T4 sequence (P25021 whole entry): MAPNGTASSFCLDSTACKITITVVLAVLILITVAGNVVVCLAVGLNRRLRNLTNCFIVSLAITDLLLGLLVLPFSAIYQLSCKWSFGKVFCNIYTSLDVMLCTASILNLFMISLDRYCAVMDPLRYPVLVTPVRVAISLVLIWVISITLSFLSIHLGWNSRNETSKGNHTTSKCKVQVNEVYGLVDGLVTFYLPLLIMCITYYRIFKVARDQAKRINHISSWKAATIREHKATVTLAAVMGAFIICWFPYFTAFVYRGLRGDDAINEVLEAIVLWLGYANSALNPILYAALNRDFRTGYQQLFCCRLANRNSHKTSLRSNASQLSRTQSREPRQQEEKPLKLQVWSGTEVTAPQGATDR
T1 sequence (Q9Y5N1 whole entry): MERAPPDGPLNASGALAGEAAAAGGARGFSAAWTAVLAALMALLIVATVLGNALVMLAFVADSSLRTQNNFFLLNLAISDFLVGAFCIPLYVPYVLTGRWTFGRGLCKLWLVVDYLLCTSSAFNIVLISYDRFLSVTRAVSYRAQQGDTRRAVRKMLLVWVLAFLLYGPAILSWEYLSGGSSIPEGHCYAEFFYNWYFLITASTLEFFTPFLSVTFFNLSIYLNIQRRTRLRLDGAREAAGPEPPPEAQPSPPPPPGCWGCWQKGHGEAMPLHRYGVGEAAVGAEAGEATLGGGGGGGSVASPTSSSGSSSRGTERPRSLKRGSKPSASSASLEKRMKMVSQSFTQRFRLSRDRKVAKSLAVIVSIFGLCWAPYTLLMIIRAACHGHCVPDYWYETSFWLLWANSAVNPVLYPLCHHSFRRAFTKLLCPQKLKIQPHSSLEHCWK

With `Cc1cc(NC(=O)Nc2ccc(F)c(F)c2)n(-c2ccccc2)n1` [VU0456810, 1-(3,4-difluorophenyl)-3-(3-methyl-1-phenyl-1H-pyrazol-5-yl)urea] the “% Inhibition” value (Potassium channel KATP) was 2%, the inhibition at 10 µM (Histamine H3) was 1% and the Potency (Kir2.1) was “Inactive”. For the same molecule, the EC50 (GIRK1/3) was 914 ± 264 nM, the “EC50 Thallium Flux” value (GIRK1/3) was “able to activate” and the inhibition at 10 µM (Histamine H2) was -2%. For the same molecule, the solubility (Solubility) was 17.5 µM (≈ 5.75 µg/mL), the inhibition at 10 µM (Cannabinoid CB1) was 8% and the “% Inhibition” value (GABAA (muscimol)) was 49%. The inhibition at 10 µM (Andreogen) was 0%.

Reference: US9067894B1, “Compound, composition, and method of activating GIRK potassium channel and use of same for treating conditions of interest” (Vanderbilt University, priority 2013, dated 2015)
